Legend:
[1] = molecular target: Cyclin-dependent kinase 2/cyclin E (Homo sapiens, UniProt P24941); test: Inhibition of CDK2/Cyclin E (unknown origin) expressed in baculovirus infected Sf9 cells using histone H1 as substrate in presence of gamma32P-ATP by scintillation counter analysis
MCF7 [2] = test: Anticancer activity against human MCF7 cells assessed as reduction in cell viability incubated for 48 hrs by MTT assay; type: functional, cell-based; settings: MCF7, 48 h
HCT-116 = test: Anticancer activity against human HCT-116 cells assessed as reduction in cell viability incubated for 48 hrs by MTT assay; type: functional, cell-based; settings: HCT-116, 48 h
MCF7 [3] = test: Antiproliferative activity against human MCF7 cells assessed as reduction in cell viability by MTT assay; type: functional, cell-based
HepG2 = test: Antiproliferative activity against human HepG2 cells assessed as reduction in cell viability by MTT assay; type: functional, cell-based
Caco-2 = test: Antiproliferative activity against human Caco-2 cells assessed as reduction in cell viability by MTT assay; type: functional, cell-based
A549 = test: Antiproliferative activity against human A549 cells assessed as reduction in cell viability by MTT assay; type: functional, cell-based
[4] = molecular target: Cyclin-dependent kinase 2/cyclin E1 (Homo sapiens, UniProt P24941); test: Inhibition of CDK2/cyclin E1 (unknown origin) expressed in Sf9 cells using histone H1 as substrate in presence of ATP by microplate reader analysis
MCF7 [5] = test: Antiproliferative activity against human MCF7 cells assessed as reduction in cell proliferation incubated for 3 days by calcein AM staining based fluorescent analysis; type: functional; settings: MCF7, 72 h
K562 = test: Antiproliferative activity against human K562 cells assessed as reduction in cell proliferation incubated for 3 days by calcein AM staining based fluorescent analysis; type: functional; settings: K562, 72 h
CDK2/Cyclin A2 [6] = molecular target: T1, CDK2/Cyclin A2 (Homo sapiens, UniProt P24941); test: Inhibition of CDK2/cyclin A2 (unknown origin) using histone as substrate in presence of ATP by luminescent ADP detection assay; type: protein-complex assay
HeLa [7] = test: Antiproliferative activity against human Hela cells assessed as reduction in cell viability by MTT assay; type: functional, cell-based
[8] = test system: Panel NCI-60 (60 carcinoma cell lines); test: Antiproliferative activity against human Panel NCI-60 (60 carcinoma cell lines) cells assessed as inhibition of cell growth at 0.00001 M incubated for 48 hrs by sulforhodamine B assay; type: functional; set-up: scale not given: the % may be the effect or the level left; settings: dose 10 µM
[9] = test system: Human immunodeficiency virus 1; test: Antiviral activity against HIV1; type: functional, organism-based
HeLa [10] = test: Antiproliferative activity against human HeLa cells assessed as reduction in cell viability incubated for 3 days by MTT assay; type: functional, cell-based; settings: 72 h
[11] = molecular target: T2, CDK2/Cyclin A2 (Homo sapiens) (UniProt P24941+P20248); test: Inhibition of CDK2/Cyclin A2 (unknown origin) at 10 uM by Kinase-Glo Plus luminescence kinase assay; type: protein-complex assay
CDK7/Cyclin H/MNAT1 = CDK7/Cyclin H/MNAT1 (Homo sapiens, UniProt P50613); test: Inhibition of CDK7/Cyclin H/MNAT1 (unknown origin) using 5-FAM-YSPTSPSYSPTSPSYSPTSPSKKK as substrate in presence of ATP by spectroscopic analysis; type: protein-complex assay
CDK9/cyclin T1 = CDK9/cyclin T1 (Homo sapiens, UniProt P50750); test: Inhibition of CDK9/cyclin T1 (unknown origin) assessed as inhibition constant; type: protein-complex assay
[12] = molecular target: T2, CDK2/Cyclin A2 (Homo sapiens); test: Inhibition of CDK2/Cyclin A2 (unknown origin) at 10 uM incubated for 40 mins in presence of ATP by Kinase-Glo Plus luminescence kinase assay; type: protein-complex assay
CDK2/Cyclin A2 [13] = molecular target: T1, CDK2/Cyclin A2; test: Inhibition of CDK2/Cyclin A2 (unknown origin) incubated for 40 mins in presence of ATP by Kinase-Glo Plus luminescence kinase assay; type: protein-complex assay
[14] = test system: Panel NCI-60 (60 carcinoma cell lines); test: Antiproliferative activity against human Panel NCI-60 (60 carcinoma cell lines) assessed as reduction in cell viability at 10 uM; type: functional
MCF7 [15] = test: Antiproliferative activity against human MCF7 cells assessed as reduction in cell proliferation incubated for 48 hrs by Sulfo-Rhodamine-B stain (SRB) assay; type: functional, cell-based; settings: MCF7, 48 h
[16] = molecular target: Cyclin-dependent kinase 2 (Homo sapiens, UniProt P24941)
Description: Inhibition of CDK2 (unknown origin)

CDK9/cyclin T1, sequence (O60563 whole entry): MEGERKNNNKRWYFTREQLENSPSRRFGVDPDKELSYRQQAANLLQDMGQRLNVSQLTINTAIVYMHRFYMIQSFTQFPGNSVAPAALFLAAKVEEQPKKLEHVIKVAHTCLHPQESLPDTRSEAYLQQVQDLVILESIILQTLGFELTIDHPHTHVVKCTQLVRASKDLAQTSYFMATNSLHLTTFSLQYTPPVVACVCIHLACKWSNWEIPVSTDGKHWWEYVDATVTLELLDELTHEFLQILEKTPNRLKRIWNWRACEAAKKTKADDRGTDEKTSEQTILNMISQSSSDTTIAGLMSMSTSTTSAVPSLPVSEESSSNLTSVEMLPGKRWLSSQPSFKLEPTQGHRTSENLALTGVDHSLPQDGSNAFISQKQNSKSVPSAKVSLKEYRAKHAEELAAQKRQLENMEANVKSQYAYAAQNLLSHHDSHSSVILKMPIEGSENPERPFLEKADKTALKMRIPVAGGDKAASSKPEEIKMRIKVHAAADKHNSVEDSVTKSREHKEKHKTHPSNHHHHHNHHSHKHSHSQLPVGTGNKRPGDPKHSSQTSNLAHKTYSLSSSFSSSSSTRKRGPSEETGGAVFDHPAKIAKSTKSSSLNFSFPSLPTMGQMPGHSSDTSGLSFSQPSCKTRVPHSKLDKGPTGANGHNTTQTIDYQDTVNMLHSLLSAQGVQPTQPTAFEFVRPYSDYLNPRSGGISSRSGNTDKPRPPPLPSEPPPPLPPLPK
CDK9/cyclin T1, sequence (P50750 whole entry): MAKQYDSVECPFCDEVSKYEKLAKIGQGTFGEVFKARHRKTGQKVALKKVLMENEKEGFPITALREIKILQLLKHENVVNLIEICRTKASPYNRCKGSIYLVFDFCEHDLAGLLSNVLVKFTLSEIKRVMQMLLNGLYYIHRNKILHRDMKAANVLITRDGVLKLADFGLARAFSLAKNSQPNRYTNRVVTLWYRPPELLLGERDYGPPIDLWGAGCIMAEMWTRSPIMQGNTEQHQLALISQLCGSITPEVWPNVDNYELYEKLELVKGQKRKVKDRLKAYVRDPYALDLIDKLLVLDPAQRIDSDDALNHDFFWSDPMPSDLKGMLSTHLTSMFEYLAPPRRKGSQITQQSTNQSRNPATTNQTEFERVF
CDK7/Cyclin H/MNAT1, sequence (P51946 whole entry): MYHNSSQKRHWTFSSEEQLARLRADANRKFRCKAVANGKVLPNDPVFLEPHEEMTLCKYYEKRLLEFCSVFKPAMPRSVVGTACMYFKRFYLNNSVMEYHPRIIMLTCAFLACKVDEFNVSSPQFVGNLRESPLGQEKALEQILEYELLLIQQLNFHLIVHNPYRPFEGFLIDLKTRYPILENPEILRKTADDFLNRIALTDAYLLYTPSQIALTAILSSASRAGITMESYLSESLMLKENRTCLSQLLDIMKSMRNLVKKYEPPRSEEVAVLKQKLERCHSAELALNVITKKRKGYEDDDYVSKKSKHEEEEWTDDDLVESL
CDK7/Cyclin H/MNAT1, sequence (P50613 whole entry): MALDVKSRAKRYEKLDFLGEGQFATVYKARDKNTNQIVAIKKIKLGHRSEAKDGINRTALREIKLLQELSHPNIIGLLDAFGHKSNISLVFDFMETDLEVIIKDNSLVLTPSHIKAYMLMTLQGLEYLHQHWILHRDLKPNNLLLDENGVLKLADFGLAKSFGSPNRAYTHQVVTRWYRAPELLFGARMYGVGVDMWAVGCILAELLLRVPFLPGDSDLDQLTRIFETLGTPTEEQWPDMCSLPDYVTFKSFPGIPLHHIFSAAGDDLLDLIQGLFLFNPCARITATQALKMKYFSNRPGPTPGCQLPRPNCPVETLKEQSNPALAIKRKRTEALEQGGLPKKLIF
CDK7/Cyclin H/MNAT1, sequence (P51948 whole entry, further chain): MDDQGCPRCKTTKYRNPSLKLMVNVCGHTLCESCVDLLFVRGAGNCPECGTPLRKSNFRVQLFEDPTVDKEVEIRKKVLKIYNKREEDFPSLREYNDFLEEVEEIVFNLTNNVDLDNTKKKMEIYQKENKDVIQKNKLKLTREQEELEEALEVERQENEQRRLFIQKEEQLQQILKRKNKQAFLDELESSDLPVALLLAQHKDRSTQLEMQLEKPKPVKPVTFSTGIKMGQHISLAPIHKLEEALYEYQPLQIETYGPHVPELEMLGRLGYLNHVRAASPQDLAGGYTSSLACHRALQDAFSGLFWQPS

## O=c1[nH]cc(-c2cccc(F)c2F)c2nccn12
[1]
  IC50: 4.8 µM

## Nc1ccc(/N=N/c2ccc(-c3nc4ncccc4[nH]3)cc2)cc1
MCF7 [2]
  IC50: 2840 nM
HCT-116
  IC50: 1830 nM

## CCOC(=O)C1=C(C)n2nc(Nc3ccccc3)c(C(N)=O)c2NC1c1ccc(F)cc1 (stereo not given)
MCF7 [3]
  IC50: 14.1 µM
HepG2
  IC50: 24.2 µM
Caco-2
  IC50: 29.3 µM
A549
  IC50: 30 µM

## CCCCCSc1nc(Nc2ccc(SC)cc2)c2cn[nH]c2n1
[4]
  IC50: 8.8 µM
MCF7 [5]
  IC50: 19.2 µM
K562
  IC50: 19.9 µM

## O=C(Oc1nc(SCCc2ccccc2)nc2[nH]ncc12)c1cc2ccccc2o1
MCF7 [5]
  IC50: 18.9 µM
K562
  IC50: 19.8 µM

## CCCCCSc1nc(OC(=O)CC(C)(C)C)c2cn[nH]c2n1
[4]
  IC50: 16.9 µM
MCF7 [5]
  IC50: 18.9 µM
K562
  IC50: 19.8 µM

## O=C(Nc1ccc(O)cc1)c1cnn(-c2cc(NCc3ccccc3)ncn2)c1
CDK2/Cyclin A2 [6]
  IC50: < 20 nM

## CCCCCSc1nc(OC(=O)c2cc3ccccc3o2)c2cn[nH]c2n1
[4]
  IC50: 8.8 µM
MCF7 [5]
  IC50: 18.9 µM
K562
  IC50: 19.8 µM

## CCOC(=O)C1=C(Cn2cc(COc3ccccc3C3NC(=O)NC(CCl)=C3C(=O)OCC)nn2)NC(=O)NC1c1ccccc1F (stereo not given)
HeLa [7]
  IC50: 18 µM

## Nc1ccc(-c2nc3ncccc3[nH]2)cc1
MCF7 [2]
  IC50: 710 nM
HCT-116
  IC50: 3060 nM

## CCOC(=O)CSc1ncnc2c1c(-c1ccccc1)c(-c1ccccc1)n2-c1ccc(C)cc1
[8]
  Activity: <50%

## O=C1CC(=O)N(c2ccc(S(=O)(=O)Nc3nccs3)cc2)C(=S)N1C(=O)c1ccccc1
[9]
  IC50: 4.5 µM

## CCCCCSc1nc(OC(=O)c2ccco2)c2cn[nH]c2n1
[4]
  IC50: 21.2 µM
MCF7 [5]
  IC50: 18.9 µM
K562
  IC50: 19.8 µM

## COc1cccc2c1C(=O)c1c(O)c3c(c(O)c1C2=O)C[C@@](O)(C(=O)CO)C[C@@H]3O[C@H]1C[C@H](N)[C@H](O)[C@H](C)O1 [DOXORUBICIN]
HeLa [10]
  IC50: 1110 nM

## Cc1cc(C)nc(NS(=O)(=O)c2ccc(N/C=C3\C(=O)NN=C3Nc3ccccc3)cc2)n1
[11]
  inhibition: 40%

## CN(C)C/C=C/C(=O)Nc1ccc(C(=O)N[C@@]2(C)CCC[C@@H](Nc3ncc(Cl)c(-c4c[nH]c5ccccc45)n3)C2)nc1
CDK7/Cyclin H/MNAT1
  IC50: 20 nM

## O=C1CC(=O)N(c2ccc(S(=O)(=O)Nc3ncccn3)cc2)C(=S)N1C(=O)c1ccccc1
[9]
  IC50: 3.1 µM

## CCCCCSc1nc(Nc2ccccc2Cl)c2cn[nH]c2n1
[4]
  IC50: 5.1 µM
MCF7 [5]
  IC50: 19.2 µM
K562
  IC50: 19.9 µM

## O=[N+]([O-])c1cccc(Nc2nc(SCCc3ccccc3)nc3[nH]ncc23)c1
[4]
  IC50: 8.7 µM
MCF7 [5]
  IC50: 19.2 µM
K562
  IC50: 19.9 µM

## COc1ccc(C2CC(c3c(O)c4ccccc4oc3=O)=NN2c2ccccc2)cc1OC (stereo not given)
CDK9/cyclin T1
  Ki: 3.26 nM

## CN(C)c1ccc(-c2cc(-c3c(O)c4ccccc4oc3=O)nc(N)c2C#N)cc1
CDK9/cyclin T1
  Ki: 3.26 nM

## O=C(NCCc1ccccc1)c1cnn2c(-c3ccc(Cl)cc3)nc(NCCc3ccccc3)nc12
[12]
  inhibition: 82%
CDK2/Cyclin A2 [13]
  IC50: 1850 nM
[14]
  inhibition at 10 µM: 33.3%

## CCCCCSc1nc(OC(=O)c2ccccc2)c2cn[nH]c2n1
[4]
  IC50: 14.8 µM
MCF7 [5]
  IC50: 18.9 µM
K562
  IC50: 19.8 µM

## Cc1ccc(S(=O)(=O)Nc2ccc(-c3ccnc(Nc4ccc(S(=O)(=O)Nc5cc(C)no5)cc4)c3C#N)cc2)cc1
MCF7 [15]
  IC50: 20.4 µM

## O=C1CC(=O)N(c2ccc(F)cc2)C(=S)N1C(=O)c1ccccc1
[16]
  IC50: 4.5 µM

## CCOC(=O)C1=C(C)n2nc(Nc3ccccc3)c(C#N)c2NC1c1ccc(OC)cc1 (stereo not given)
MCF7 [3]
  IC50: 10.1 µM
HepG2
  IC50: 17.1 µM
Caco-2
  IC50: 25.2 µM
A549
  IC50: 29.9 µM

## O=C(Nc1ccc(F)cc1)c1cnn(-c2cc(NCc3ccccc3)ncn2)c1
CDK2/Cyclin A2 [6]
  IC50: < 20 nM

## CCOC(=O)C1=C(Cn2cc(COc3ccccc3C3NC(=O)NC(CCl)=C3C(=O)OCC)nn2)NC(=O)NC1c1ccc(O)c(OC)c1 (stereo not given)
HeLa [7]
  IC50: 18 µM

## O=C(c1ccccc1)N1C(=O)C(C2C(=O)N(C(=O)c3ccccc3)C(=S)N(c3ccc(F)cc3)C2=O)C(=O)N(c2ccc(F)cc2)C1=S (stereo not given)
[16]
  IC50: 5.2 µM
[9]
  IC50: 2.7 µM

— ChEMBL document CHEMBL5230096, “A comprehensive insight on the recent development of Cyclic Dependent Kinase inhibitors as anticancer agents” (Eur J Med Chem, 2020)
